From patent publication US11524945B2, “Compounds for treating ILK-mediated diseases” (The Cleveland Clinic Foundation, priority 2018, dated 2022)
pIC50, pKd: −log10 of the molar value. Where two headings read alike, the source gives them in different places.

Tests used:
MCF10a cells = assay: Proliferation of normal breast MCF10a cells; type: cell-based; conditions: compounds at final 2 μM, FIG. 5 panel A
Method: Cells were seeded at 20,000 cells/ml in 12 well plates in complete media. On day 3, the compounds were added at final 2 μM and the cells were counted every 3 days. […] Cells were seeded at 10,000 cells/ml in 12 well plates in complete media. The compounds were added at final 2 μM on day 2 and the cells were counted every 2 days.

[1] = Oral toxicity in normal mice; type: in vivo; conditions: 25 to 510 mg/kg every day for two weeks, CMC/TWEEN 80
CYP 2E1 = CYP 2E1 (Homo sapiens (Human), UniProt P05181); assay: CYP inhibition in human liver microsomes, 2E1; type: in vitro ADME
[2] = Log D in 1-Octanol/PBS pH 7.4; type: physicochemical
CYP 2C19 = CYP 2C19 (Homo sapiens (Human), UniProt P33261); assay: CYP inhibition in human liver microsomes, 2C19; type: in vitro ADME
[3] = Permeability in Caco2 cell line; type: in vitro ADME; conditions: human
[4] = Stability in human plasma; type: in vitro ADME
[5] = Metabolic stability in mouse liver microsomes; type: in vitro ADME; conditions: for Remaining Percentage (%): Mouse
Stability in SIF = type: physicochemical
CYP 3A4-M = CYP 3A4-M (Homo sapiens (Human), UniProt P08684); assay: CYP inhibition in human liver microsomes, 3A4-M; type: in vitro ADME
Stability in rat plasma = type: in vitro ADME
[6] = Protein binding in mouse plasma; type: in vitro ADME
CYP 2A6 = CYP 2A6 (Homo sapiens (Human), UniProt P11509); assay: CYP inhibition in human liver microsomes, 2A6; type: in vitro ADME
[7] = target: ILK-PINCH-Parvin (IPP) complex (Homo sapiens (Human), UniProt Q13418); assay: IPP-mediated actin bundling assay; type: biochemical; conditions: FIG. 4
From the text: Next, we set out to obtain in vitro evidence of Csbl-1. […] Mutation of L207 into bulky Trp in ILK abolished the MgATP binding to ILK and impaired the formation and morphology of actin bundles (Vaynberg et al., 2018). Using the same actin bundling assay, we examined the effect of Csbl-1 on the IPP-mediated actin bundling. […] In general, more bundles with smaller sizes were observed as a result of Csbl-1 interference. Csbl-1 would knock out MgATP at the ILK site and increase the local concentration of Mg^2+, which may impact the actin bundling process (Tang and Janmey, 1996, Vaynberg et al., 2018).

purified EGFR = purified EGFR (Homo sapiens (Human), UniProt P00533); assay: kinase assay using purified EGFR; type: biochemical
[8] = Metabolic stability in rat liver microsomes; type: in vitro ADME; conditions: for Remaining Percentage (%): Rat
CYP 2D6 = CYP 2D6 (Homo sapiens (Human), UniProt P10635); assay: biochemical; type: in vitro ADME; conditions: Human Liver Microsomes
purified recombinant ILK = purified recombinant ILK (Homo sapiens (Human), UniProt Q13418); assay: ILK binding affinity, EnSpire fluorescence intensity
[9] = Protein binding in rat plasma; type: in vitro ADME
HepG2 cells = assay: Mitochondrial toxicity in HepG2 cells; type: cell-based; conditions: for IC50: Homo sapiens, HepG2 cells
CYP 1A2 = CYP 1A2 (Homo sapiens (Human), UniProt P05177); assay: CYP inhibition in human liver microsomes, 1A2; type: in vitro ADME
CYP 2B6 = CYP 2B6 (Homo sapiens (Human), UniProt P20813); assay: CYP inhibition in human liver microsomes, 2B6; type: in vitro ADME
EGFR = EGFR (Homo sapiens (Human), UniProt P00533); assay: EGFR binding affinity, EnSpire fluorescence intensity; conditions: same experimental conditions as ILK
CYP 2C8 = CYP 2C8 (Homo sapiens (Human), UniProt P10632); assay: CYP inhibition in human liver microsomes, 2C8; type: in vitro ADME
Chain of CYP 2C8 (P10632 whole entry): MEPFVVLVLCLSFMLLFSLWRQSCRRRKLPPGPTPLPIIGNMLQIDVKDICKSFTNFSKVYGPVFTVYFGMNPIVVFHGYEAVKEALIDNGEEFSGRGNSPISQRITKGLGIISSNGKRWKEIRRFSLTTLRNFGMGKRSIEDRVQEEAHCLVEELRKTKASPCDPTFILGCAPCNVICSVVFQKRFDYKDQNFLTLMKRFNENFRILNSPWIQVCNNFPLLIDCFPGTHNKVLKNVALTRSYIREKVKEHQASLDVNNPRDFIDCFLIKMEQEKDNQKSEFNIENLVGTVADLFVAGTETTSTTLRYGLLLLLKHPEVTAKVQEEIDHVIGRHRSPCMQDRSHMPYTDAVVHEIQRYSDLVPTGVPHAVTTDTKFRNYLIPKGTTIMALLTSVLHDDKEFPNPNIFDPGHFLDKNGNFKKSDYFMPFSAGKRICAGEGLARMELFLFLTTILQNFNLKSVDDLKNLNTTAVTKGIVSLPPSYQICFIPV

Chain of purified recombinant ILK (Q13418 whole entry): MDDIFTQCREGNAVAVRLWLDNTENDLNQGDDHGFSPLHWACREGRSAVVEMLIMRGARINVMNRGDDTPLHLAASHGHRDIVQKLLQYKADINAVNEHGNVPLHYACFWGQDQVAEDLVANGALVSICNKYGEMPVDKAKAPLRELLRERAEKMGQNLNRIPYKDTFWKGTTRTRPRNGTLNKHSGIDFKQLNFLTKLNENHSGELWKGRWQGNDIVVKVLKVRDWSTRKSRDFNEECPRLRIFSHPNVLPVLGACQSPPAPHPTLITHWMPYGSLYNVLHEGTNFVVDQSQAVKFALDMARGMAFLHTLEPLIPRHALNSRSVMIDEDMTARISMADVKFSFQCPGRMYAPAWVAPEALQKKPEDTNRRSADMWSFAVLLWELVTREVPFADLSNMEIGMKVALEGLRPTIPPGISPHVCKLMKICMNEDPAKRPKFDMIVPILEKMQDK
Chain of CYP 1A2 (P05177 whole entry): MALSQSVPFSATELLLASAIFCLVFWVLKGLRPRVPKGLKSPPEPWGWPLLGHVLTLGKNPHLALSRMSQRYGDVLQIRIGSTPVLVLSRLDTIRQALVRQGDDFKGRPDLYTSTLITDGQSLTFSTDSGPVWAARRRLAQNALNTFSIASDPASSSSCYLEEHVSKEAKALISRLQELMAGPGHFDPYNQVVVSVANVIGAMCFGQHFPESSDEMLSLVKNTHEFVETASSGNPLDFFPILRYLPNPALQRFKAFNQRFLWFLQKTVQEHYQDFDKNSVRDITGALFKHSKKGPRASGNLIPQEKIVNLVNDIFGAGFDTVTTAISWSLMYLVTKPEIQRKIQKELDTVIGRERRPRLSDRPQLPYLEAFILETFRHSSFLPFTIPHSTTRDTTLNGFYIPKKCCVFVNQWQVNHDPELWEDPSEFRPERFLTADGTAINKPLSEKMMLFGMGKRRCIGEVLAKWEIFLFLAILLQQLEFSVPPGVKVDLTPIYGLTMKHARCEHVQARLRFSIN
Chain of ILK-PINCH-Parvin (IPP) complex (Q13418 whole entry): as the sequence (Q13418 whole entry) above
Chain of ILK-PINCH-Parvin (IPP) complex (P48059 whole entry partner): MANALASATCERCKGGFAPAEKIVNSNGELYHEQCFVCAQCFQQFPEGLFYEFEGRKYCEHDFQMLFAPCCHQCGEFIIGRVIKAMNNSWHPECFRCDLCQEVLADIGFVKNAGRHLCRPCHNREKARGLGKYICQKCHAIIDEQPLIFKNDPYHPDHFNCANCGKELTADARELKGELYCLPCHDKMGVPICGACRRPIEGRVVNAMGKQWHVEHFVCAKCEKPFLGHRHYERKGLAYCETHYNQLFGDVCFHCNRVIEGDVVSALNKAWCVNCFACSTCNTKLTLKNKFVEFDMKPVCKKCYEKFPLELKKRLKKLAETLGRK
Chain of ILK-PINCH-Parvin (IPP) complex (Q9NVD7 whole entry partner): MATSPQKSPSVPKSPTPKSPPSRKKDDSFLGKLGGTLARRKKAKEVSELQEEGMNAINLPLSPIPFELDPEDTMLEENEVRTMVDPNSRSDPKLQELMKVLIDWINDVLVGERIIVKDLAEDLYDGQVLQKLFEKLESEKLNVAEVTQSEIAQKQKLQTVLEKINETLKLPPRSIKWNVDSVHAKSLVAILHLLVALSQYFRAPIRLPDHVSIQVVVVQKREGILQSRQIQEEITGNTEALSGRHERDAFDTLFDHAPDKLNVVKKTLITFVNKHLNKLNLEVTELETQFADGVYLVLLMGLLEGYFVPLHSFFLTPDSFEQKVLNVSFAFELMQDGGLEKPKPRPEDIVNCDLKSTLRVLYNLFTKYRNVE
Chain of CYP 2D6 (P10635 whole entry): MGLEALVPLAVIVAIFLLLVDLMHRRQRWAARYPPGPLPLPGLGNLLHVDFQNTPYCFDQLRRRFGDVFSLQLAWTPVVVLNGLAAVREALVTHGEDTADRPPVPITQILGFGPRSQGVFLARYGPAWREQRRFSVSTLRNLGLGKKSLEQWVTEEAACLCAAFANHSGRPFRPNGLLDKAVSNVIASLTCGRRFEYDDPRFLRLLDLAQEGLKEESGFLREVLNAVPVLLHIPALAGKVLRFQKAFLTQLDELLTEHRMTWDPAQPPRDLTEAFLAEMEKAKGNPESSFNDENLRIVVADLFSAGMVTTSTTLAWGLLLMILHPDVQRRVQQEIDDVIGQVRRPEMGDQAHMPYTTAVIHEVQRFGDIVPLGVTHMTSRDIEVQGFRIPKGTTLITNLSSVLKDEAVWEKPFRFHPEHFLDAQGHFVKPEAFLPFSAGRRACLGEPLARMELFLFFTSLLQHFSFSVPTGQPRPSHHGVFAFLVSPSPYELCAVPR
Chain of purified EGFR (P00533 25-1210): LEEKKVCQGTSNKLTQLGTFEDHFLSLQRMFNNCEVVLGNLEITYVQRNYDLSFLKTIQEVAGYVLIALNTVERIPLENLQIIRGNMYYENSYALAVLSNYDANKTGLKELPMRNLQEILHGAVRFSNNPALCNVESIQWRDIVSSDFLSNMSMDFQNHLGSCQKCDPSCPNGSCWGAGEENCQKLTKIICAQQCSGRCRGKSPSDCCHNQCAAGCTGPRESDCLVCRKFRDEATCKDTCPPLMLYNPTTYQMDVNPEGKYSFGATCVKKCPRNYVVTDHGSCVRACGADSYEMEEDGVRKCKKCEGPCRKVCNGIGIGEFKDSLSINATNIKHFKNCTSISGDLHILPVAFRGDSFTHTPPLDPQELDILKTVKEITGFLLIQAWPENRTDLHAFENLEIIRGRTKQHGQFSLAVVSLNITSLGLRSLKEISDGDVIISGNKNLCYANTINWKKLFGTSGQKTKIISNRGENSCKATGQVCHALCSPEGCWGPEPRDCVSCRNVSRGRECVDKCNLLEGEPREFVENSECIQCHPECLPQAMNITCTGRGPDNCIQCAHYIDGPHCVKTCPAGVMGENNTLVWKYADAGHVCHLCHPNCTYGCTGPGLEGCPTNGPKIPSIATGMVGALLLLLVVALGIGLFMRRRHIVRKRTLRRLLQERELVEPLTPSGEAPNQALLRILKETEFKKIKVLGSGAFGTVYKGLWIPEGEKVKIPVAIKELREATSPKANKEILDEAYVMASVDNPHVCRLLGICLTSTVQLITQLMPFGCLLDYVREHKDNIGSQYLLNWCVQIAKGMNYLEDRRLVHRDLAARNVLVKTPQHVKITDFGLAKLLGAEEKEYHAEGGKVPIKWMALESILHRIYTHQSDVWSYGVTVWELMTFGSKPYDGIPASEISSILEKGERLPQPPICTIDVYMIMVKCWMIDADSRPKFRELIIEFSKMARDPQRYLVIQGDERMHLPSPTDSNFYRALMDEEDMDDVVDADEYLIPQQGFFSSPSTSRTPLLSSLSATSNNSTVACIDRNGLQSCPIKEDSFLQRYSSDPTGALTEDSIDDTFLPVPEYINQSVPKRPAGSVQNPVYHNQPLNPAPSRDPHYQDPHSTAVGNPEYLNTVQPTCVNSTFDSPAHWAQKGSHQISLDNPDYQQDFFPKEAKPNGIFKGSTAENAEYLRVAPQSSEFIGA
Chain of CYP 2E1 (P05181 whole entry): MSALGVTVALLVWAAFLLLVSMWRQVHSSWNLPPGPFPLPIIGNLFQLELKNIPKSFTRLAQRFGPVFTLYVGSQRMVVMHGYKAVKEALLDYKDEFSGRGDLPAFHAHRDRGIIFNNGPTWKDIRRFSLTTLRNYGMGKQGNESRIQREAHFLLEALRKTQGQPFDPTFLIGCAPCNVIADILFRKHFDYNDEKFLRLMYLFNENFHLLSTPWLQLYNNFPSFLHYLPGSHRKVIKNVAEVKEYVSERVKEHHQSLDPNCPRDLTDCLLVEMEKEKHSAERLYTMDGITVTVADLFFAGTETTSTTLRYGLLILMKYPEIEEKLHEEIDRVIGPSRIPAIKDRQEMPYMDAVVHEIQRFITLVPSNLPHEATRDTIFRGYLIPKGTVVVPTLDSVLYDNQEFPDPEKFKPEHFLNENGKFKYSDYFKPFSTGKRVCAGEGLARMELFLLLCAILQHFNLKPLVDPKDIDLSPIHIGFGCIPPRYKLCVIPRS
Chain of CYP 2C19 (P33261 whole entry): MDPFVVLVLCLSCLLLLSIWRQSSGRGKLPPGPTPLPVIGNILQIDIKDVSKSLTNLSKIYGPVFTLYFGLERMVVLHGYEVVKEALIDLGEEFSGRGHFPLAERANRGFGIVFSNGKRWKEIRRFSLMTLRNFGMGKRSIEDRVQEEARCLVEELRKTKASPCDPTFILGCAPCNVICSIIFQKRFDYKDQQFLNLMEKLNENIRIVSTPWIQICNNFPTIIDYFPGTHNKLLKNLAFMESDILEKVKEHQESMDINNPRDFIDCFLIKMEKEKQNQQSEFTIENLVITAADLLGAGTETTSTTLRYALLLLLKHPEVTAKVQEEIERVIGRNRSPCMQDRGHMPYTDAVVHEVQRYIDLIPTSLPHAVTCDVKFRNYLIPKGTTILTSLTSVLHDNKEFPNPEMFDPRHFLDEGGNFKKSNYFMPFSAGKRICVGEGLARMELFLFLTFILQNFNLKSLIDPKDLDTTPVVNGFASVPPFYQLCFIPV

SMILES: C#Cc1cc(Nc2ncnc3cc(OCCOC)ccc23)cc(OCCOCC)c1 [Compound 1]
- effect on proliferation of MCF10a cells (MCF10a cells): little effect
- toxic symptoms in normal mice [1]: no toxic symptoms
- IC50 (CYP 2E1): > 50 µM
- logD [2]: 3.61
- IC50 (CYP 2C19): 10.8 µM
- recovery ([3]; Caco-2, Caco2, AP-BL, read-out: Recovery (%)AP-BL): 51%
- recovery ([3]; Caco-2, Caco2, BL-AP, read-out: Recovery (%)BL-AP): 53.5%
- efflux ratio ([3]; Caco-2, Caco2): 0.48
- Papp A→B ([3]; Caco-2, Caco2, A-B): 15.4 ×10⁻⁶ cm/s
- Papp B→A ([3]; Caco-2, Caco2, B-A): 7.31 ×10⁻⁶ cm/s
- Remaining Percentage (%) ([4]; 0 min): 100.00%
- Remaining Percentage (%) ([4]; 15 min): 93.79%
- Remaining Percentage (%) ([4]; 30 min): 93.79%
- Remaining Percentage (%) ([4]; 45 min): 90.52%
- Remaining Percentage (%) ([4]; 60 min): 90.20%
- Remaining Percentage (%) ([4]; 120 min): 88.56%
- half-life ([5]; Mouse liver microsomes): 35.4 min
- microsomal CLint ([5]; Mouse liver microsomes, read-out: CLint (μL/min/mg protein)): 39.2 µL/min/mg
- CLint scaled ([5]; Mouse liver microsomes, read-out: Scaled-up CLint): 172 mL/min/kg
- Remaining Percentage (%) ([5]; With NADPH, 0 min): 100.00%
- Remaining Percentage (%) ([5]; With NADPH, 15 min): 72.40%
- Remaining Percentage (%) ([5]; With NADPH, 30 min): 51.67%
- Remaining Percentage (%) ([5]; With NADPH, 45 min): 37.39%
- Remaining Percentage (%) ([5]; With NADPH, 60 min): 32.04%
- Remaining Percentage (%) ([5]; Without NADPH, 0 min): 100.00%
- Remaining Percentage (%) ([5]; Without NADPH, 15 min): 93.90%
- Remaining Percentage (%) ([5]; Without NADPH, 30 min): 93.90%
- Remaining Percentage (%) ([5]; Without NADPH, 45 min): 91.46%
- Remaining Percentage (%) ([5]; Without NADPH, 60 min): 94.51%
- Remaining Percentage (%) (Stability in SIF; 0 min): 100.00%
- Remaining Percentage (%) (Stability in SIF; 30 min): 104.86%
- Remaining Percentage (%) (Stability in SIF; 60 min): 109.34%
- Remaining Percentage (%) (Stability in SIF; 120 min): 105.85%
- Remaining Percentage (%) (Stability in SIF; 180 min): 108.93%
- Remaining Percentage (%) (Stability in SIF; 240 min): 109.26%
- IC50 (CYP 3A4-M): 43.8 µM
- Remaining Percentage (%) (Stability in rat plasma; 0 min): 100.00%
- Remaining Percentage (%) (Stability in rat plasma; 15 min): 92.93%
- Remaining Percentage (%) (Stability in rat plasma; 30 min): 94.35%
- Remaining Percentage (%) (Stability in rat plasma; 45 min): 93.29%
- Remaining Percentage (%) (Stability in rat plasma; 60 min): 94.70%
- Remaining Percentage (%) (Stability in rat plasma; 120 min): 91.52%
- recovery [6]: 110%
- fraction unbound ([6]; read-out: % Bound): 0.01
- IC50 (CYP 2A6): > 50 µM
- effect on IPP-induced actin bundles [7]: substantial change of IPP-induced actin bundles
- pIC50 (purified EGFR): 4.11
- half-life ([8]; Rat liver microsomes): 16 min
- microsomal CLint ([8]; Rat liver microsomes, read-out: CLint (μL/min/mg protein)): 86.6 µL/min/mg
- CLint scaled ([8]; Rat liver microsomes, read-out: Scaled-up CLint): 155 mL/min/kg
- Remaining Percentage (%) ([8]; With NADPH, 0 min): 100.00%
- Remaining Percentage (%) ([8]; With NADPH, 15 min): 45.00%
- Remaining Percentage (%) ([8]; With NADPH, 30 min): 21.08%
- Remaining Percentage (%) ([8]; With NADPH, 45 min): 11.69%
- Remaining Percentage (%) ([8]; With NADPH, 60 min): 7.65%
- Remaining Percentage (%) ([8]; Without NADPH, 0 min): 100.00%
- Remaining Percentage (%) ([8]; Without NADPH, 15 min): 95.03%
- Remaining Percentage (%) ([8]; Without NADPH, 30 min): 90.68%
- Remaining Percentage (%) ([8]; Without NADPH, 45 min): 91.30%
- Remaining Percentage (%) ([8]; Without NADPH, 60 min): 102.48%
- IC50 (CYP 2D6): 27.6 µM
- Binding Difference ILK (Kd)/EGFR (Kd) (purified recombinant ILK; EnSpire fluorescence intensity): 0.1565
- pKd (purified recombinant ILK; EnSpire fluorescence intensity, read-out: ILK - Binding affinity): 5.56
- pKd (purified recombinant ILK; fluorescence-based binding assay, purified ILK, read-out: KD to ILK): ~5.56
- recovery [9]: 93.4%
- fraction unbound ([9]; read-out: % Bound (converted)): 0.0083
- IC50 (HepG2 cells; Galactose, read-out: IC50 (μM)_Galactose): > 150 µM
- IC50 (HepG2 cells; Glucose, read-out: IC50 (μM)_Glucose): > 150 µM
- Compound precipitation (HepG2 cells; at 50 and 150 μM in mitochondrial toxicity assay): * Compound precipitation observed for Compound 1 at 50 and 150 μM.
- IC50 (CYP 1A2): 33.3 µM
- IC50 (CYP 2B6): > 50 µM
- KD to EGFR (EGFR): too weak to be accurately determined
- IC50 (CYP 2C8): 3.24 µM
